One series relates to MDA-MB-231 cells. Kind of series: Soft agar colonization of MDA-MB-231 cells after antisense transfection. The class given is cell-based. The procedure: Monolayers of MDA-MB-231 cells were transfected with 2 μg/ml of EphA2 antisense or inverse antisense (IAS) oligonucleotides at 37° C. for 24 hours. […] The membranes were stripped and reprobed with paxillin antibodies as a loading control (B). The relative mobility of molecular mass standards is shown on the left of panels A and B. (C) MDA-MB-231 cell monolayers, treated with antisense oligonucleotides as detailed above, were suspended in soft agar for 7 days before microscopic analysis of colony formation. […] Results are reported as colonies per high-powered field (HPF).
An antisense oligonucleotide-based approach that decreased EphA2 expression in tumor cells independent of EphA2 activation was developed. […] Inverted antisense oligonucleotides (5′-[…]-3′; SEQ ID NO:109) provided a control. The cells were transfected with oligonucleotides (2 μg/ml) using Lipofectamine PLUS Reagent (Life Technologies, Inc.) according to the manufacturer's protocol. Twenty-four hours post-transfection, the cells were divided. Half of the cells were seeded into soft agar, and the remaining cells were extracted and subjected to Western blot analysis.
MDA-MB-231 cells were suspended in soft agar. […] Colony formation was scored microscopically using an Olympus CK-3 inverted phase-contrast microscope outfitted with a 40× objective. Clusters containing at least three cells were scored as a positive. […]

For a further series, the system named is EphA2. As to the kind of experiment: EphA2 expression in MDA-MB-231 cells after antisense transfection (Western blot). The class given is cell-based. To be noted: 2 μg/ml oligonucleotide, 24 hours. On the technique in general: A western blot detects proteins with antibodies after separation by electrophoresis.
Series [1] concerns MCF-7^EphA2 cells. Kind of series: Soft agar colonization of MCF-7^EphA2 cells. It counts as cell-based. Particulars: TAM 1 μM, EA2 10 μg/ml. As for the experimental part: (B) MCF-7 (circles) or MCF-7^EphA2 cells (squares) were implanted into the mammary fatpad (n=15 mice per group) in the presence of supplemental estrogen.
MCF-7^EPhA2 cells were incubated in the presence of 3 μg/ml of EA2 for the time indicated prior to sample extraction and Western blot analyses with an EphA2-specific antibody (D7). (B) The membrane was stripped and re-probed with a β-catenin-specific antibody as a loading control.
(§1) Growth assays were conducted as follows. MCF-7^neo (control cells) or MCF7^EphA2 cells were seeded in 96-well plates. […] Colony formation in soft agar was performed as previously described (Zelinski et al., 2001, Cancer Res. 61: 2301-6) and scored microscopically, defining clusters of at least three cells as a positive. The data represent the average of ten separate high-power microscopic fields from each sample and representative of at least three separate experiments. Error bars represent the standard error of the mean of at least three different experiments as determined using Microsoft Excel software.
Growth MCF-7^EphA2 cells which had decreased EphA2 expression levels was assayed in soft agar.

A further series deals with control MCF-7 cells. Kind of series: Soft agar colonization of control MCF-7 cells. The class given is cell-based. Particulars: TAM 1 μM; EA2 10 μg/ml; FIG. 13C. As for the experimental part:
as §1, with “software. […]” for “software.”

Series [2] concerns MCF-7^EphA2 cells. As to the kind of experiment: Tumorigenic potential of MCF-7^EphA2 vs control cells in mammary fat pad of athymic mice under tamoxifen. The class given is in vivo. To be noted: tamoxifen 1 mg oral gavage 6 days per week, from 17 days post-implantation; supplemental estrogen; FIG. 11B. The procedure: (B) MCF-7 (circles) or MCF-7^EphA2 cells (squares) were implanted into the mammary fatpad (n=15 mice per group) in the presence of supplemental estrogen. […] Tumor volume of tamoxifen treated (black circles and squares) and saline treated (white circles and squares) animals was measured at the indicated time.
Consistent with increased soft agar colonization, orthotopically implanted MCF-7^EphA2 cells formed larger, more rapidly growing tumors in vivo. Six to eight week-old athymic (nu/nu) mice were purchased from Harlan Sprague Dawley (Indianapolis, Ind.). When indicated, a controlled release estradiol pellet (0.72 mg 17β-estradiol, 60-day formulation) was injected subcutaneously via a sterile 14-gauge trocar 24 hours prior to tumor implantation and pellets were replaced every 60 days for those experiments spanning>60 days in duration. 1×10^6 MCF-7^neo or MCF7^EphA2 cells were injected into the mammary fat pad under direct visualization.

“Also recorded” adds a separate entry of the source.

As for “5′-CCAGCAGTACCGCTTCCTTGCCCTGCGGCCG-3′ (all phosphorothioate, sugars by position and methylation of C not given here; listed as Homo Sapiens) [EphA2 antisense oligonucleotides, phosphorothioate-modified antisense oligonucleotides unique to EphA2]”, in the series with MDA-MB-231 cells (2 μg/ml oligonucleotide, 7 days in soft agar, FIG. 14C), the “Decrease of soft agar colonization vs matched controls” value is on record as “at least 60%”. For the same molecule, the “Colony formation in soft agar vs inverted antisense control” value in the series with MDA-MB-231 cells (P<0.002) is “significantly impaired”. Also, the “EphA2 expression / protein level after oligonucleotide transfection” value in the series with EphA2 is given as “selectively decreased EphA2 expression in MDA-MB-231 cells; also recorded: decreases EphA2 protein levels”.

Take “5′-GCCGCGTCCCGTTCCTTCACCATGACGACC-3′ (listed as DNA, chemistry not given here; listed as Homo sapiens) [IAS, inverted antisense control oligonucleotide, reference compound]”: in the series with EphA2, the “EphA2 expression / protein level after oligonucleotide transfection” value is “did not”.

For the molecule `C[C@]12CC[C@@H]3c4ccc(O)cc4CC[C@H]3[C@@H]1CC[C@@H]2O` [estradiol, 17β-estradiol, reference compound], the “Soft agar colonization response / tamoxifen sensitivity, MCF-7^EphA2 cells” value in the series on MCF-7^EphA2 cells [1] (1 μM 17β-estradiol, FIGS. 11A, 13C (11A also MCF-7)) was “overcame the inhibitory effects of tamoxifen”.

Turning to tamoxifen [reference compound], the “Inhibition / decrease of soft agar colonization, MCF-7^EphA2 cells” value in the series with MCF-7^EphA2 cells [1] (14 days) is given as 25%. Further, the “Soft agar colonization response, control MCF-7 cells” value in the series with control MCF-7 cells is “sensitive to tamoxifen”. Also, the “Sensitivity of tumorigenic potential to tamoxifen, MCF-7^EphA2 vs control (MCF-7^neo)” value in the series on MCF-7^EphA2 cells [2] is on record as “less sensitive to tamoxifen; also recorded: lower inhibitory effects of tamoxifen on MCF-7^EphA2 relative to control cells”.

The values above are taken from patent US20050153923A1, “Targeted drug delivery using EphA2 or EphA4 binding moieties” (priority 2003, published 2005).
